The values that follow come from patent publication US12344600B2, “c-Myc mRNA translation modulators and uses thereof in the treatment of cancer” (Anima Biotech Inc., priority 2022, dated 2025).

In the experiment the test system is c-Myc. In words: c-Myc immunofluorescence assay. In kind it is cell-based, human. As to conditions: A549 cells, 24 hours, anti-c-Myc immunofluorescence. The essentials:
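Read-out is imaged c-Myc immunofluorescence, nucleus-segmented, in A549 lung carcinoma cells exposed to compound dose series for 24 h after 48 h growth. Fixation 4% paraformaldehyde, Triton permeabilization, antibody staining at room temperature; EC50 from logistic fit of signal versus concentration.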

On to `Cc1ccc(CN2CCC(CNC(=O)C3CCN(c4nc(-c5ccc(O)cc5)no4)CC3)C2)cc1` (stereo not shown) [Compound 170, 1-(3-(4-hydroxyphenyl)-1,2,4-oxadiazol-5-yl)-N-((1-(4-methylbenzyl)pyrrolidin-3-yl)methyl)piperidine-4-carboxamide], for which the “Myc Efficacy (−LogEC50)” value was “+ (+ >3 and <5)”.

`COc1ccc(-c2noc(N3CCC(C(=O)NCC4CCN(C[C@H]5CCN5)C4)CC3)n2)cc1` (stereo partly drawn) [Compound 413, N-((1-(((R)-azetidin-2-yl)methyl)pyrrolidin-3-yl)methyl)-1-(3-(4-methoxyphenyl)-1,2,4-oxadiazol-5-yl)piperidine-4-carboxamide]: the “Myc Efficacy (−LogEC50)” value is on record as “− (− ≤3)”.

Consider `COc1ccc(-c2coc(N3CCC(C(=O)N4CCOCC4)CC3)n2)cc1` [Compound 203, (1-(4-(4-methoxyphenyl)oxazol-2-yl)piperidin-4-yl)(morpholino)methanone], for which the “Myc Efficacy (−LogEC50)” value was “+ (+ >3 and <5)”.

On to `COc1ccc(-c2noc(N3CCC(C(=O)NCC4(c5ccccc5)CCOCC4)CC3)n2)cc1` [Compound 273, 1-(3-(4-methoxyphenyl)-1,2,4-oxadiazol-5-yl)-N-((4-phenyltetrahydro-2H-pyran-4-yl)methyl)piperidine-4-carboxamide], for which the “Myc Efficacy (−LogEC50)” value is “− (− ≤3)”.

On to `CC1CCCN(CCCNC(=O)C2CCN(c3nc(-c4ccc(Cl)cc4)no3)CC2)C1` (stereo not shown) [Compound 132, 1-(3-(4-chlorophenyl)-1,2,4-oxadiazol-5-yl)-N-(3-(3-methylpiperidin-1-yl)propyl)piperidine-4-carboxamide], for which the “Myc Efficacy (−LogEC50)” value was “+ (+ >3 and <5)”.

Take `COc1ccc(-c2noc(N3CCC(C(=O)NC4CCOCC4)CC3)n2)cc1` [Compound 254, 1-(3-(4-methoxyphenyl)-1,2,4-oxadiazol-5-yl)-N-(tetrahydro-2H-pyran-4-yl)piperidine-4-carboxamide]: the “Myc Efficacy (−LogEC50)” value was “+ (+ >3 and <5)”.

Turning to `COc1ccc(-c2noc(N3CCC(C(=O)NCCCN4CCCC(C)C4)CC3)n2)cc1` (stereo not shown) [Compound 124, 1-(3-(4-methoxyphenyl)-1,2,4-oxadiazol-5-yl)-N-(3-(3-methylpiperidin-1-yl)propyl)piperidine-4-carboxamide], the “Myc Efficacy (−LogEC50)” value is “+ (+ >3 and <5)”.

As for `COc1ccc(-c2noc(N3CCC(C(=O)NCC4(c5ccc(F)cc5F)CC4)CC3)n2)cc1` [Compound 307, N-((1-(2,4-difluorophenyl)cyclopropyl)methyl)-1-(3-(4-methoxyphenyl)-1,2,4-oxadiazol-5-yl)piperidine-4-carboxamide], the “Myc Efficacy (−LogEC50)” value was “+ (+ >3 and <5)”.

Take `O=C(NCCCN1CCC(Cc2ccccc2)CC1)C1CCN(c2nc(-c3ccc(OC(F)F)cc3)no2)CC1` [Compound 240, N-(3-(4-benzylpiperidin-1-yl)propyl)-1-(3-(4-(difluoromethoxy)phenyl)-1,2,4-oxadiazol-5-yl)piperidine-4-carboxamide]: the “Myc Efficacy (−LogEC50)” value is “+++ (+++ ≥6)”.

With `O=C(C1CCN(c2nc(-c3ccncc3)no2)CC1)N1CCOCC1` [Compound 202, morpholino(1-(3-(pyridin-4-yl)-1,2,4-oxadiazol-5-yl)piperidin-4-yl)methanone], the “Myc Efficacy (−LogEC50)” value is “+ (+ >3 and <5)”.

In the case of `COc1ccc(-c2noc(N3CCC(C(=O)NCC4CCN(CC5CCCNCC5)C4)CC3)n2)cc1` (stereo not shown) [Compound 391, N-((1-(azepan-4-ylmethyl)pyrrolidin-3-yl)methyl)-1-(3-(4-methoxyphenyl)-1,2,4-oxadiazol-5-yl)piperidine-4-carboxamide], the “Myc Efficacy (−LogEC50)” value is “+ (+ >3 and <5)”.

As for `COc1ccc(-c2noc(N3CCC(C(=O)NC[C@H]4CCCN4C)CC3)n2)cc1` [Compound 252, (R)-1-(3-(4-methoxyphenyl)-1,2,4-oxadiazol-5-yl)-N-((1-methylpyrrolidin-2-yl)methyl)piperidine-4-carboxamide], the “Myc Efficacy (−LogEC50)” value was “+ (+ >3 and <5)”.

On to `COc1ccc(-c2noc(N3CCC(C(=O)NC4CCN(C)CC4)CC3)n2)cc1` [Compound 218, 1-(3-(4-methoxyphenyl)-1,2,4-oxadiazol-5-yl)-N-(1-methylpiperidin-4-yl)piperidine-4-carboxamide], for which the “Myc Efficacy (−LogEC50)” value is given as “− (− ≤3)”.

On to `COc1ccc(-c2noc(N3CCN(C(=O)C4CCCN(CC(C)C)C4)CC3)n2)cc1` (stereo not shown) [Compound 227, (1-isobutylpiperidin-3-yl)(4-(3-(4-methoxyphenyl)-1,2,4-oxadiazol-5-yl)piperazin-1-yl)methanone], for which the “Myc Efficacy (−LogEC50)” value is “+ (+ >3 and <5)”.

Turning to `COc1ccc(-c2noc(N3CCC(C(=O)NCC4CCN(C[C@H]5CCCN(C)C5)C4)CC3)n2)cc1` (stereo partly drawn) [Compound 422, 1-(3-(4-methoxyphenyl)-1,2,4-oxadiazol-5-yl)-N-((1-(((S)-1-methylpiperidin-3-yl)methyl)pyrrolidin-3-yl)methyl)piperidine-4-carboxamide], the “Myc Efficacy (−LogEC50)” value was “++ (++ ≥5 and <6)”.

`COc1ccc(-c2noc(N3CCC(C(=O)NCC4CCN(Cc5ccccc5)C4)CC3)n2)cc1` (stereo not shown) [Compound 342, N-((1-benzylpyrrolidin-3-yl)methyl)-1-(3-(4-methoxyphenyl)-1,2,4-oxadiazol-5-yl)piperidine-4-carboxamide]: the “Myc Efficacy (−LogEC50)” value was “++ (++ ≥5 and <6)”.

For the molecule `COc1ccc(-c2noc(N3CCC(C(=O)NCC4CCN(Cc5cccc(O)c5)C4)CC3)n2)cc1` (stereo not shown) [Compound 390, N-((1-(3-hydroxybenzyl)pyrrolidin-3-yl)methyl)-1-(3-(4-methoxyphenyl)-1,2,4-oxadiazol-5-yl)piperidine-4-carboxamide], the “Myc Efficacy (−LogEC50)” value is “++ (++ ≥5 and <6)”.

Take `COc1ccc(-c2noc(N3CCC(C(=O)NCC4CCN(C[C@@H]5CCCN5)C4)CC3)n2)cc1` (stereo partly drawn) [Compound 392, 1-(3-(4-methoxyphenyl)-1,2,4-oxadiazol-5-yl)-N-((1-(((S)-pyrrolidin-2-yl)methyl)pyrrolidin-3-yl)methyl)piperidine-4-carboxamide]: the “Myc Efficacy (−LogEC50)” value was “+ (+ >3 and <5)”.

In the case of `Cc1ccc(CN2CCC(CNC(=O)C3CCN(c4nc(-c5ccc(C#N)cc5)no4)CC3)C2)cc1` (stereo not shown) [Compound 158, 1-(3-(4-cyanophenyl)-1,2,4-oxadiazol-5-yl)-N-((1-(4-methylbenzyl)pyrrolidin-3-yl)methyl)piperidine-4-carboxamide], the “Myc Efficacy (−LogEC50)” value is “++ (++ ≥5 and <6)”.

For the molecule `COc1ccc(-c2noc(N3CCC(C(=O)NCC4OCCc5ccccc54)CC3)n2)cc1` (stereo not shown) [Compound 303, N-(isochroman-1-ylmethyl)-1-(3-(4-methoxyphenyl)-1,2,4-oxadiazol-5-yl)piperidine-4-carboxamide], the “Myc Efficacy (−LogEC50)” value is “+ (+ >3 and <5)”.

On to `COc1ccc(-c2noc(N3CCC(C(=O)NCC(c4ccccc4)N(C)C)CC3)n2)cc1` (stereo not shown) [Compound 304, N-(2-(dimethylamino)-2-phenylethyl)-1-(3-(4-methoxyphenyl)-1,2,4-oxadiazol-5-yl)piperidine-4-carboxamide], for which the “Myc Efficacy (−LogEC50)” value is “+ (+ >3 and <5)”.

Consider `COc1ccc(-c2noc(N3CCC(C(=O)Nc4ccc5c(c4)CCN5C)CC3)n2)cc1` [Compound 403, 1-(3-(4-methoxyphenyl)-1,2,4-oxadiazol-5-yl)-N-(1-methylindolin-5-yl)piperidine-4-carboxamide], for which the “Myc Efficacy (−LogEC50)” value is “+ (+ >3 and <5)”.
